Source: US11899019B2, “Method for predicting efficacy of anti-PD-1 antibody or anti-PD-L1 antibody therapy, method for evaluating cancer grade, and method for enhancing efficacy of anti-PD-1 antibody or anti-PD-L1 antibody therapy” (J-Pharma Co., Ltd., priority 2017, dated 2024)
“And” between values parts separate entries of the source, which are not always exact repeats. Equal values may be shown once. Marks after values point to notes of the source that are not given here.

What was measured:
PD-L1 mRNA [1] = assay: Change of PD-L1 expression level by JPH2O3, quantitative PCR in OST cells; type: cell-based, human; conditions: 30 μM, 24 hours treatment
Method: (§1) The LAT1 activity was suppressed using an inhibitor JPH2O3 instead of the gene suppression using siRNA, and it was examined whether results similar to Test Example 5 would be obtained. JPH2O3 is O-(5-amino-2-phenylbenzoxazol-7-yl)methyl-3,5-dichloro-L-tyrosine. HuccT1 cells (derived from human bile duct cancer) and OST cells (derived from human fibrosarcoma of bone) were seeded in culture dishes. After treatment with 30 μM of JPH2O3 (LAT1 selective inhibitor) for 24 hours, cells were collected and mRNA expression levels of PD-L1 were analyzed by quantitative PCR.
(§2) In Table 8, the mRNA expression levels per cell are expressed as relative values, with the expression level of the control that was not treated with JPH2O3 being 1. In both HuccT1 cells and OST cells, the expression of PD-L1 was increased. […] Moreover, since the inhibition of LAT1 increased the expression of PD-L1, it is considered that the LAT1 inhibition therapy can increase the expression level of PD-L1 as well as reduce the expression level or activity of LAT1 in patients. In other words, it is considered that the expression level of PD-L1 in patients can be brought close to those in patients of the P-predominance type by the LAT1 inhibition therapy.

PD-L1 mRNA [2] = assay: Change of PD-L1 expression level by JPH2O3, quantitative PCR in HuccT1 cells; type: cell-based, human; conditions: 30 μM, 24 hours treatment
Method: as §1, §2

[3] = tested on: advanced non-small cell lung cancers (Stage III/IV); assay: Response to nivolumab in non-small cell lung cancer patients, determined by CT in accordance with RECIST; type: in vivo, human
Method: Cancer tissues were collected from 21 patients with first line anticancer therapy resistant/relapsed advanced non-small cell lung cancers (Stage III/IV) incorporated in this examination, and the expressions of LAT1 and PD-L1 were examined by immunohistochemistry using an anti-LAT1 antibody and an anti-PD-L1 antibody. Tumors were determined as positive when the cell membrane of the tumors, together with PD-L1 and LAT1, were stained. Tumors having 10% or more of PD-L1-positive cells were defined as having high PD-L1 expression, and tumors having 25% or more of LAT1-positive cells were defined as having high LAT1 expression.
The response rate was evaluated in accordance with the international criteria for which the tumor sizes are measured by CT and the tumors are classified into response, progression, or stable. The response refers to cases where 30% or more decrease is observed in the longer axis of the tumor after the administration of the agent. The progression refers to cases where the 20% or more increase is observed in the longer axis of the tumor after the administration of the agent. The stable refers to cases where the shrinkage of the tumor is insufficient to classify it as response and the increase of the tumor in comparison with the minimum sum of the longest axis after the start of the therapy is insufficient to classify it as progression.

PD-L1 mRNA [4] = assay: siRNA knockdown, PD-L1 mRNA by quantitative PCR in H520 cells; type: cell-based, human; conditions: 48 hours after siRNA introduction, relative value with control siRNA = 1, n = 4
Method: (§3) The suppression of mRNA expression of PD-L1 or LAT1 at the transcriptional level was attempted using siRNA. WiDr cells (derived from human colon-adenocarcinoma), SKN cells (human uterine leiomyosarcoma cells), and H520 cells (human pulmonary squamous cell carcinoma cells) were seeded in culture dishes. siRNA that suppresses the mRNA expression of PD-L1, siRNA that suppresses the mRNA expression of LAT1, or a control siRNA was introduced into cells. As the siRNA, Silencer (registered trademark) Select siRNAs of the Ambion (registered trademark) series from Thermo Fisher Scientific K.K. Specifically, siPD-L1 #2 (siRNA ID: s26548) set forth in SEQ ID NOs: 1 and 2 was used as the siRNA for suppressing the mRNA expression of PD-L1, siLAT1 #3 (siRNA ID: s15653) set forth in SEQ ID NOs: 3 and 4 was used as the siRNA for suppressing the mRNA expression of LAT1, and Silencer Select Negative control #2 (Cat #: 390847) was used as the control siRNA. Cells were collected 48 hours later, when the suppression effect on expression tends to be prominent, and mRNA expression levels of LAT1 and PD-L1 per cell were analyzed by quantitative PCR.
(§4) In Table 7, the mRNA expression levels per cell are expressed as relative values, with the mRNA expression level in the cells, to which the control siRNA was introduced, being 1. […]

PD-L1 mRNA [5] = assay: siRNA knockdown, PD-L1 mRNA by quantitative PCR in SKN cells; type: cell-based, human; conditions: 48 hours after siRNA introduction, relative value with control siRNA = 1, n = 4
Method: as §3, §4

LAT1 mRNA [6] = assay: siRNA knockdown, LAT1 mRNA by quantitative PCR in H520 cells; type: cell-based, human; conditions: 48 hours after siRNA introduction, relative value with control siRNA = 1, n = 4
Method: as §3, §4

PD-L1 mRNA [7] = assay: siRNA knockdown, PD-L1 mRNA by quantitative PCR in WiDr cells; type: cell-based, human; conditions: 48 hours after siRNA introduction, relative value with control siRNA = 1, n = 4
Method: as §3, §4

LAT1 mRNA [8] = assay: siRNA knockdown, LAT1 mRNA by quantitative PCR in SKN cells; type: cell-based, human; conditions: 48 hours after siRNA introduction, relative value with control siRNA = 1, n = 4
Method: as §3, §4

LAT1 mRNA [9] = assay: siRNA knockdown, LAT1 mRNA by quantitative PCR in WiDr cells; type: cell-based, human; conditions: 48 hours after siRNA introduction, relative value with control siRNA = 1, n = 4
Method: as §3, §4

[10] = relative value with untreated control = 1, n = 4
[11] = relative value with untreated control = 1, n = 4, listed as JPH2O3
[12] = PD-L1 high expression group (8 patients), RECIST
[13] = PD-L1 low expression group (13 patients), RECIST
[14] = high LAT1 expression group (9 patients), RECIST
[15] = low LAT1 expression group (12 patients), RECIST
[16] = single patient of FIG. 8, high PD-L1 and low LAT1 expression

## Nc1cc(COc2c(Cl)cc(C[C@H](N)C(=O)O)cc2Cl)c2oc(-c3ccccc3)nc2c1 [JPH203, O-(5-amino-2-phenylbenzoxazol-7-yl)methyl-3,5-dichloro-L-tyrosine]
PD-L1 mRNA [1]; [10]
  PD-L1 mRNA expression level: 2.79*
PD-L1 mRNA [1]; [11]
  PD-L1 mRNA expression level: increased
PD-L1 mRNA [2]; [10]
  PD-L1 mRNA expression level: 12.26**
PD-L1 mRNA [2]; [11]
  PD-L1 mRNA expression level: increased

## nivolumab
[3]; [12]
  patients exhibited a response: 4 patients
  patients exhibited progression: 1 patient
[3]; [13]
  patients exhibited a response: 3 patients
  patients exhibited progression: 7 patients
[3]; all 21 patients
  patients exhibited a response: 7 patients
  patients exhibited no response: 14 patients
  patients exhibited progression: 7 patients
  response rate: 33%
[3]; [14]
  patients exhibited a response: 1 patient
  patients exhibited progression: 6 patients and 5 patients
[3]; [15]
  patients exhibited a response: 4 patients and 6 patients
  patients exhibited progression: 3 patients and 2 patients
[3]; [16]
  outcome of nivolumab treatment: responded
  progression-free survival: ≥ 10 months
[3]; single patient of FIG. 9, high LAT1 and low PD-L1 expression
  outcome of nivolumab treatment: progression
[3]; single patient of FIG. 10, high PD-L1 and high LAT1 expression
  outcome of nivolumab treatment: progression

## si-LAT1: Silencer Select siRNA set forth in SEQ ID NOs: 3 and 4, suppressing the mRNA expression of LAT1 (chain 1 UGUCCAAUCUAGAUCCCAATT; chain 2 UUGGGAUCUAGAUUGGACACA; chemistry not given here)
PD-L1 mRNA [4]
  PD-L1 mRNA expression level: 0.82***
PD-L1 mRNA [5]
  PD-L1 mRNA expression level: 1.04***
LAT1 mRNA [6]
  LAT1 mRNA expression level: 0.11
PD-L1 mRNA [7]
  PD-L1 mRNA expression level: 1.82***
LAT1 mRNA [8]
  LAT1 mRNA expression level: 0.06
LAT1 mRNA [9]
  LAT1 mRNA expression level: 0.11

## si-PD-L1: Silencer Select siRNA set forth in SEQ ID NOs: 1 and 2, suppressing the mRNA expression of PD-L1 (chain 1 GGACUCACUUGGUAAUUCUTT; chain 2 AGAAUUACCAAGUGAGUCCTT; chemistry not given here)
PD-L1 mRNA [4]
  PD-L1 mRNA expression level: 0.37
PD-L1 mRNA [5]
  PD-L1 mRNA expression level: 0.24
LAT1 mRNA [6]
  LAT1 mRNA expression level: 2.29***
PD-L1 mRNA [7]
  PD-L1 mRNA expression level: 0.46
LAT1 mRNA [8]
  LAT1 mRNA expression level: 1.52***
LAT1 mRNA [9]
  LAT1 mRNA expression level: 5.01***
